{
  "source": "patent US12458621B1",
  "about": "“Application of genipin beta-methyl derivative gen-17 in preparation of drug for prevention and treatment of acute severe pneumonia” (KUNMING MEDICAL UNIVERSITY, priority 2024, dated 2025)",
  "assay_type_in_all_cases": "in vivo, Kunming mice",
  "key": {"LPS-induced ALI mice [1]": {"system": "LPS-induced ALI mice", "test": "HE staining histopathology and alveolitis score of lung tissue", "settings": "for pathological scores of alveolitis: compared with DEX group (P<0.05)", "procedure": "The dosage is converted according to the weight of the mice, and the gavage volume is 20 milliliters per kilogram (mL/kg), and the gavage is continued for 3 days. One hour after the gavage on the third day, the ALI model is established by tracheal instillation of LPS solution. […] After the mice are awake, they are raised as usual. 2.3 Treatment of Experimental Animals and Collection of Lung Tissue Specimens\nSamples are collected 24 hours after the animal model is established. The mice are weighed and 12 mice in each group are sacrificed. Lung tissues are collected and the whole lung wet weight is measured. The lung tissues are packaged for hematoxylin and eosin (HE) staining, MDA and SOD content determination, gene and protein detection. The specific experimental procedures are as follows. • (1) 12 mice in each group are weighed and their necks are dislocated and sacrificed. • (2) The mice are fixed. The abdomen is wiped with 75% alcohol. The thoracic cavity is then opened, and the lung tissue is removed. After tidying, the lungs are photographed, excess tissues such as the trachea are cleared away, and the wet weight of the whole lung is measured to calculate the lung index. • (3) The upper lobe of the left lung is fixed in 4% neutral paraformaldehyde, fixed for 24 hours, paraffin-embedded and sectioned for HE staining. • (4) The remaining lung tissues are put into centrifugal tubes separately, quickly frozen in liquid nitrogen, and then stored at −80° C. after the experiment, which is used for the detection of MDA, SOD, western blotting (WB) and reverse transcription polymerase chain reaction (RT-PCR). 2.4 BALF Collection and Processing"}, "LPS-induced ALI mice [2]": {"system": "LPS-induced ALI mice", "test": "Total cell count in BALF", "procedure": "(§1) A total of 144 SPF-grade healthy Kunming mice, aged 5-7 weeks and weighing 18-22 g, are weighed and randomly allocated into six experimental groups: control group (NS), model group (LPS), dexamethasone group (DEX, […] per kilogram abbreviated as mg/kg), genipin beta-methyl derivative low-dose group (12.5 mg/kg), genipin beta-methyl derivative medium-dose group (25 mg/kg), and genipin beta-methyl derivative high-dose group (50 mg/kg), 24 animals per group, in which 12 animals are used to take lung tissue for the detection of other indicators, and another 12 animals are used to collect BALF.\nAll mice are gavaged with a same volume of 0.9% normal saline once a day in the NS group and the LPS group, DEX solution (0.39 mg/kg) is gavaged once a day in the DEX group, low-dose Gen-17 solution (12.5 mg/kg) is gavaged once a day in the medium-dose Gen-17 group, medium-dose Gen-17 solution (25 mg/kg) is gavaged once a day in the high-dose Gen-17 group, and high-dose Gen-17 solution (50 mg/kg) is gavaged once a day in the high-dose Gen-17 group. The dosage is converted according to the weight of the mice, and the gavage volume is 20 milliliters per kilogram (mL/kg), and the gavage is continued for 3 days. One hour after the gavage on the third day, the ALI model is established by tracheal instillation of LPS solution. The specific experimental procedures are as follows. • (1) Before the operation, the mice are anesthetized by intraperitoneal injection of 1% sodium pentobarbital (30 mg/kg) according to their body weight. • (2) Limbs of anesthetized mice are fixed with rubber bands, teeth are wired with thin threads, and neck skin is disinfected with 75% alcohol. • (3) A subcutaneous tissue is separated along a longitudinal incision in a middle of the mouse neck until a cartilage ring appeared in an exposed trachea. • (4) A microinjector is inserted into the trachea in parallel towards a proximal end for about 1 centimeter (cm). Sterile NS is slowly dripped into the trachea of the control group, and LPS is dripped into the trachea of the other groups. • (5) After pulling out the microinjector, the mice are upright immediately, rotated and shaken evenly for 2 minutes (min), then the neck wound is sutured, and the state of the mice is observed. After the mice are awake, they are raised as usual. 2.3 Treatment of Experimental Animals and Collection of Lung Tissue Specimens\nBALF is collected 24 hours after the establishment of the animal model. First, the remaining 12 mice in each group are weighed, and then BALF is extracted. The extracted BALF is used for total cell count, total protein content determination and enzyme-linked immunosorbent assay (ELISA) determination of IL-1B, IL-6 and TNF-α in BALF. The specific experimental procedures are as follows. • (1) After weighing, the mice are anesthetized by intraperitoneal injection of pentobarbital sodium according to their weight; • (2) When the tail root, hind limbs, eyelash reflex and other activities of mice disappear, and the mice breathe slowly and evenly, the limbs and teeth of mice are fixed, the neck skin of mice is disinfected with 75% alcohol, and the neck tissue is opened longitudinally, so that the tracheal cartilage ring is exposed. Tracheal puncture is performed with a 19G trocar catheter, the needle is inserted for about 1 cm, the needle core is pulled out, a 1 ml syringe is connected, and precooled normal saline (0.8 mL/time, repeat 2 times) is slowly injected. […]"}, "IL-1β": {"system": "IL-1β", "test": "IL-1β content in BALF by ELISA", "procedure": "as §1\n(§2) All mice are gavaged with a same volume of 0.9% normal saline once a day in the NS group and the LPS group, DEX solution (0.39 mg/kg) is gavaged once a day in the DEX group, low-dose Gen-17 solution (12.5 mg/kg) is gavaged once a day in the medium-dose Gen-17 group, medium-dose Gen-17 solution (25 mg/kg) is gavaged once a day in the high-dose Gen-17 group, and high-dose Gen-17 solution (50 mg/kg) is gavaged once a day in the high-dose Gen-17 group. The dosage is converted according to the weight of the mice, and the gavage volume is 20 milliliters per kilogram (mL/kg), and the gavage is continued for 3 days. One hour after the gavage on the third day, the ALI model is established by tracheal instillation of LPS solution. […]"}, "IL-6": {"system": "IL-6", "test": "IL-6 content in BALF by ELISA", "procedure": "as §1, §2"}, "IKKα/β": {"system": "IKKα/β", "test": "IKKα/β mRNA in lung tissue by qRT-PCR", "settings": "Gen-17 (12.5, 25, 50 mg/kg gavage) compared with LPS group (P<0.001)", "procedure": "as §1, with “BALF. […]” for “BALF.”\n(§3) Samples are collected 24 hours after the animal model is established. […] Lung tissues are collected and the whole lung wet weight is measured. […] After tidying, the lungs are photographed, excess tissues such as the trachea are cleared away, and the wet weight of the whole lung is measured to calculate the lung index. • (3) The upper lobe of the left lung is fixed in 4% neutral paraformaldehyde, fixed for 24 hours, paraffin-embedded and sectioned for HE staining. • (4) The remaining lung tissues are put into centrifugal tubes separately, quickly frozen in liquid nitrogen, and then stored at −80° C. after the experiment, which is used for the detection of MDA, SOD, western blotting (WB) and reverse transcription polymerase chain reaction (RT-PCR). […]"}, "IkB-α": {"system": "IkB-α", "test": "IkB-α mRNA in lung tissue by qRT-PCR", "settings": "Gen-17 (12.5, 25, 50 mg/kg gavage) compared with LPS group (P<0.001)", "procedure": "as §1, with “BALF. […]” for “BALF.”\nas §3"}, "NF-κB p65": {"system": "NF-κB p65", "test": "NF-κB p65 protein in lung tissue by WB", "procedure": "as §1, with “BALF. […]” for “BALF.”\nas §3"}, "HO-1": {"system": "HO-1", "test": "HO-1 gene expression in lung tissue by qRT-PCR", "procedure": "as §1, with “BALF. […]” for “BALF.”\nas §3"}, "[3]": {"settings": "Gen-17 groups (12.5, 25, 50 mg/kg gavage) compared with LPS group"}, "[4]": {"settings": "low-dose Gen-17 12.5 mg/kg gavage, compared with DEX group (P<0.01)"}},
  "data": [
    {"smiles": "COC(=O)C1=CO[C@@H](OC)[C@@H]2C(COC(=O)c3cccc(Br)c3)=CC[C@H]12", "note": "[Gen-17, genipin beta-methyl derivative]", "values": [
      {"measurement": "pathological damage of lung tissue (HE staining)", "setting": "LPS-induced ALI mice [1]; [3]", "value": "significantly alleviate the pathological damage"},
      {"measurement": "pathological score of lung tissue", "setting": "LPS-induced ALI mice [1]; high-dose Gen-17 50 mg/kg gavage, compared with LPS group (P<0.01)", "value": "significantly reduced"},
      {"measurement": "pathological scores of alveolitis", "setting": "LPS-induced ALI mice [1]; low-dose Gen-17 12.5 mg/kg gavage", "value": "increased"},
      {"measurement": "pathological scores of alveolitis", "setting": "LPS-induced ALI mice [1]; medium-dose Gen-17 25 mg/kg gavage", "value": "increased"},
      {"measurement": "total cell counts in BALF", "setting": "LPS-induced ALI mice [2]; Gen-17 groups (12.5, 25, 50 mg/kg gavage) compared with LPS group (P<0.001)", "value": "decreased significantly"},
      {"measurement": "total cell counts in BALF", "setting": "LPS-induced ALI mice [2]; [4]", "value": "significantly increased"},
      {"measurement": "total cell counts in BALF", "setting": "LPS-induced ALI mice [2]; low-dose Gen-17 12.5 mg/kg gavage, compared with NS group (P<0.001)", "value": "significantly increased"},
      {"measurement": "total cell counts in BALF", "setting": "LPS-induced ALI mice [2]; middle-dose Gen-17 25 mg/kg gavage, compared with DEX group (P<0.01)", "value": "significantly increased"},
      {"measurement": "total cell counts in BALF", "setting": "LPS-induced ALI mice [2]; middle-dose Gen-17 25 mg/kg gavage, compared with NS group (P<0.001)", "value": "significantly increased"},
      {"measurement": "content of IL-1β in BALF", "setting": "IL-1β; Gen-17 groups (12.5, 25, 50 mg/kg gavage) compared with LPS group (P<0.05)", "value": "reduce the contents of inflammatory cytokines"},
      {"measurement": "IL-1β level in BALF", "setting": "IL-1β; [4]", "value": "statistically significant reduction"},
      {"measurement": "content of IL-6 in BALF", "setting": "IL-6; [3]", "value": "reduce the contents of inflammatory cytokines"},
      {"measurement": "IL-6 level in BALF", "setting": "IL-6; [4]", "value": "statistically significant reduction"},
      {"measurement": "mRNA expression of IKKα/β in lung tissue", "setting": "IKKα/β", "value": "significantly reduce the expression"},
      {"measurement": "mRNA expression of IkB-α in lung tissue", "setting": "IkB-α", "value": "significantly reduce the expression"},
      {"measurement": "expression of NF-κB p65 protein in lung tissue", "setting": "NF-κB p65; Gen-17 groups (12.5, 25, 50 mg/kg gavage) compared with NS group (P<0.001, P<0.05)", "value": "significantly increased"},
      {"measurement": "expression of NF-κB p65 protein in lung tissue", "setting": "NF-κB p65; after drug treatment, compared with LPS group (P<0.05)", "value": "down-regulate the expression of NF-κB p65 protein"},
      {"measurement": "expression of HO-1 gene in lung tissue", "setting": "HO-1; Gen-17 compared with DEX group (P<0.001)", "value": "statistically significant in upregulating the expression of HO-1 gene"},
      {"measurement": "expression of HO-1 gene in lung tissue", "setting": "HO-1; Gen-17 group compared with NS group", "value": "significantly decreased (P<0.001)"}
    ]}
  ]
}
